Measurements: patent US20260092074A1, “Annelated Pyridines as Steroidogenesis Inhibitors, Preparation Method and Use Thereof” (Guangzhou Vinnocent Pharmaceutical Limited, priority 2022, published 2026)
pIC50: −log10 of the molar value.

Legend:
human CYP11B1 = target: T1, human CYP11B1 (Homo sapiens, UniProt P15538); assay: Inhibition of hCYP11B1 in transfected V79 cells; assay type: cell-based; conditions: hamster V79 cells expressing human CYP11B1; substrate 11-deoxycortisol 200 nM
T1 construct: expressed in transfected cells
T1 sequence (P15538 25-503): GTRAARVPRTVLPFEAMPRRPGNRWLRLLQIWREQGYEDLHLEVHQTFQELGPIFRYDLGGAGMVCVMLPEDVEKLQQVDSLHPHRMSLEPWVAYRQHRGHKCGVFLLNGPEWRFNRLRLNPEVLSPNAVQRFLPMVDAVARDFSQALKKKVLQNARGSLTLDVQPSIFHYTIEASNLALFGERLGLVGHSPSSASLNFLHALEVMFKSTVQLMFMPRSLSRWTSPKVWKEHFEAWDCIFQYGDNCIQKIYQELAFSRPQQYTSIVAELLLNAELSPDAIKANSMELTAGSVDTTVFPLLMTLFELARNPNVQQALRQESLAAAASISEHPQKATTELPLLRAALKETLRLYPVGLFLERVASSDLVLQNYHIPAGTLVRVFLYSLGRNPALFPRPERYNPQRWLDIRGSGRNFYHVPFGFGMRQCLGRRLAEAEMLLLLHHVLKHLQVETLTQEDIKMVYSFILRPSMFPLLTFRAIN
Procedure, shortened: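 V79 hamster cells stably expressing human CYP11B1 and rat NADPH-P450 reductase were preincubated with compounds for 2 h. 11-Deoxycortisol (200 nM) was then added as substrate for 30 min before ethyl acetate quench. Substrate and product were quantified by LC-MS/MS or HPLC at 260 nm, and IC50 was derived from percent inhibition.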

human CYP11B2 = target: T2, human CYP11B2 (Homo sapiens, UniProt P19099); assay: Inhibition of hCYP11B2 in transfected V79 cells; assay type: cell-based; conditions: hamster V79 cells expressing human CYP11B2; substrate 11-deoxycorticosterone 200 nM
T2 construct: expressed in transfected cells
T2 sequence (P19099 25-503): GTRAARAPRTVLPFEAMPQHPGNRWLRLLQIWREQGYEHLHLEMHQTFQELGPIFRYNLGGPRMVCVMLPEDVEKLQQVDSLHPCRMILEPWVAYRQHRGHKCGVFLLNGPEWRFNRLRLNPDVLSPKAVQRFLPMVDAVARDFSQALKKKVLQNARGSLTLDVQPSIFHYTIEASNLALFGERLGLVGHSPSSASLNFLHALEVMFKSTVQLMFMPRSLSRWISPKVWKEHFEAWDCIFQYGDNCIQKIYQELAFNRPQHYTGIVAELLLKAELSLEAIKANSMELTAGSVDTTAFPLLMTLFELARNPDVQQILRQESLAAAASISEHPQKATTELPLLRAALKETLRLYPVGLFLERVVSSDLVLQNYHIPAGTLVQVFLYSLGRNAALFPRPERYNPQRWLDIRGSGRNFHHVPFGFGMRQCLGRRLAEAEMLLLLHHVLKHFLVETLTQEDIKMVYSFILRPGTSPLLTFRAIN
Procedure, shortened: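 Hamster V79 cells stably co-expressing human CYP11B2 and rat NADPH-P450 reductase were pre-incubated with compounds for 2 hours, then given 200 nM 11-deoxycorticosterone for 30 minutes before ethyl acetate quench. Substrate and product were quantified by LC-MS/MS or HPLC at 260 nm, and IC50 was derived from percent inhibition.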

SMILES	pIC50 (human CYP11B1)	pIC50 (human CYP11B2)
N#Cc1ccc(-c2cncc3c2OCCN3C(=O)[C@@H]2CCN(Cc3cccc(F)c3)C2)cc1 [O105, (R)-4-(4-(1-(3-Fluorobenzyl)pyrrolidine-3-carbonyl)-3,4-dihydro-2H-pyrido[4,3-b][1,4]oxazin-8-yl)benzonitrile]	6.19	7.54
Clc1ccc2oc(-c3cncc4c3OCCN4)cc2c1 [O108, 8-(5-Chlorobenzofuran-2-yl)-3,4-dihydro-2H-pyrido[4,3-b][1,4]oxazine]	6.44	8.10
N#Cc1ccc2oc(-c3cncc4c3OCCN4)cc2c1 [O109, 2-(3,4-Dihydro-2H-pyrido[4,3-b][1,4]oxazin-8-yl)benzofuran-5-carbonitrile]	6.42	8.32
N#Cc1ccc(-c2cncc3c2OCCN3S(=O)(=O)C2CN(C(=O)c3cccc(C#N)c3)C2)cc1 [O110, 4-(4-((1-(3-Cyanobenzoyl)azetidin-3-yl)sulfonyl)-3,4-dihydro-2H-pyrido[4,3-b][1,4]oxazin-8-yl)benzonitrile]	6.32	7.71
N#Cc1ccc(C(=O)N2CC(S(=O)(=O)N3CCOc4c(-c5ccc(C#N)cc5)cncc43)C2)cc1 [O111, 4-(4-((1-(4-Cyanobenzoyl)azetidin-3-yl)sulfonyl)-3,4-dihydro-2H-pyrido[4,3-b][1,4]oxazin-8-yl)benzonitrile]	6.67	7.63
COc1cccc(C(=O)N2CC(S(=O)(=O)N3CCOc4c(-c5ccc(C#N)cc5)cncc43)C2)c1 [O112, 4-(4-((1-(3-Methoxybenzoyl)azetidin-3-yl)sulfonyl)-3,4-dihydro-2H-pyrido[4,3-b][1,4]oxazin-8-yl)benzonitrile]	6.77	7.57
COc1ccc(C(=O)N2CC(S(=O)(=O)N3CCOc4c(-c5ccc(C#N)cc5)cncc43)C2)cc1 [O113, 4-(4-((1-(4-Methoxybenzoyl)azetidin-3-yl)sulfonyl)-3,4-dihydro-2H-pyrido[4,3-b][1,4]oxazin-8-yl)benzonitrile]	7.01	8.52
N#Cc1ccc(-c2cncc3c2OCCN3S(=O)(=O)C2CN(S(=O)(=O)c3ccc(C#N)cc3)C2)cc1 [O114, 4-((3-((8-(4-Cyanophenyl)-2,3-dihydro-4H-pyrido[4,3-b][1,4]oxazin-4-yl)sulfonyl)azetidin-1-yl)sulfonyl)benzonitrile]	7.16	8.15
N#Cc1ccc(-c2cncc3c2OCCN3S(=O)(=O)C2CN(S(=O)(=O)c3cccc(C#N)c3)C2)cc1 [O115, 3-((3-((8-(4-Cyanophenyl)-2,3-dihydro-4H-pyrido[4,3-b][1,4]oxazin-4-yl)sulfonyl)azetidin-1-yl)sulfonyl)benzonitrile]	6.98	8.49
N#Cc1ccc(-c2cncc3c2OCCN3S(=O)(=O)C2CN(S(=O)(=O)c3ccc(F)cc3)C2)cc1 [O116, 4-(4-((1-((4-Fluorophenyl)sulfonyl)azetidin-3-yl)sulfonyl)-3,4-dihydro-2H-pyrido[4,3-b][1, 4]oxazin-8-yl)benzonitrile]	7.27	8.51
N#Cc1ccc(-c2cncc3c2OCCN3S(=O)(=O)C2CN(S(=O)(=O)c3cccc(F)c3)C2)cc1 [O117, 4-(4-((1-((3-Fluorophenyl)sulfonyl)azetidin-3-yl)sulfonyl)-3,4-dihydro-2H-pyrido[4,3-b][1, 4]oxazin-8-yl)benzonitrile]	7.35	8.62
COc1ccc(S(=O)(=O)N2CC(S(=O)(=O)N3CCOc4c(-c5ccc(C#N)cc5)cncc43)C2)cc1 [O118, 4-(4-((1-((4-Methoxyphenyl)sulfonyl)azetidin-3-yl)sulfonyl)-3,4-dihydro-2H-pyrido[4,3-b][1,4]oxazin-8-yl)benzonitrile]	7.41	8.57
COc1cccc(S(=O)(=O)N2CC(S(=O)(=O)N3CCOc4c(-c5ccc(C#N)cc5)cncc43)C2)c1 [O119, 4-(4-((1-((3-Methoxyphenyl)sulfonyl)azetidin-3-yl)sulfonyl)-3,4-dihydro-2H-pyrido[4,3-b][1,4]oxazin-8-yl)benzonitrile]	7.42	8.38
N#Cc1ccc(-c2cncc3c2OCCN3S(=O)(=O)C2CN(Cc3cccc(C#N)c3)C2)cc1 [O120, 3-((3-((8-(4-Cyanophenyl)-2,3-dihydro-4H-pyrido[4,3-b][1,4]oxazin-4-yl)sulfonyl)azetidin-1-yl)methyl)benzonitrile]	7.54	9.52
N#Cc1ccc(CN2CC(S(=O)(=O)N3CCOc4c(-c5ccc(C#N)cc5)cncc43)C2)cc1 [O121, 4-(4-((1-(4-Cyanobenzyl)azetidin-3-yl)sulfonyl)-3,4-dihydro-2H-pyrido[4,3-b][1,4]oxazin-8-yl)benzonitrile]	7.44	9.40
N#Cc1ccc(-c2cncc3c2OCCN3S(=O)(=O)C2CN(Cc3cccc(F)c3)C2)cc1 [O122, 4-(4-((1-(3-Fluorobenzyl)azetidin-3-yl)sulfonyl)-3,4-dihydro-2H-pyrido[4,3-b][1,4]oxazin-8-yl)benzonitrile]	7.23	9.10
N#Cc1ccc(-c2cncc3c2OCCN3S(=O)(=O)C2CN(Cc3ccc(F)cc3)C2)cc1 [O123, 4-(4-((1-(4-Fluorobenzyl)azetidin-3-yl)sulfonyl)-3,4-dihydro-2H-pyrido[4,3-b][1,4]oxazin-8-yl)benzonitrile]	7.59	9.52
COc1cccc(CN2CC(S(=O)(=O)N3CCOc4c(-c5ccc(C#N)cc5)cncc43)C2)c1 [O124, 4-(4-((1-(3-Methoxybenzyl)azetidin-3-yl)sulfonyl)-3,4-dihydro-2H-pyrido[4,3-b][1,4]oxazin-8-yl)benzonitrile]	7.42	9.22
COc1ccc(CN2CC(S(=O)(=O)N3CCOc4c(-c5ccc(C#N)cc5)cncc43)C2)cc1 [O125, 4-(4-((1-(4-Methoxybenzyl)azetidin-3-yl)sulfonyl)-3,4-dihydro-2H-pyrido[4,3-b][1,4]oxazin-8-yl)benzonitrile]	7.55	9.30
N#Cc1ccc(-c2cncc3c2OCCN3S(=O)(=O)C2CN(c3cccc(F)c3)C2)cc1 [O126, 4-(4-((1-(3-Fluorophenyl)azetidin-3-yl)sulfonyl)-3,4-dihydro-2H-pyrido[4,3-b][1,4]oxazin-8-yl)benzonitrile]	6.90	8.52
N#Cc1ccc(-c2cncc3c2OCCN3S(=O)(=O)C2CN(c3ccc(F)cc3)C2)cc1 [O127, 4-(4-((1-(4-Fluorophenyl)azetidin-3-yl)sulfonyl)-3,4-dihydro-2H-pyrido[4,3-b][1,4]oxazin-8-yl)benzonitrile]	6.71	8.64
N#Cc1ccc(S(=O)(=O)N2CCOc3c(-c4cc5cc(Cl)ccc5o4)cncc32)cc1 [O128, 4-((8-(5-Chlorobenzofuran-2-yl)-2,3-dihydro-4H-pyrido[4,3-b][1,4]oxazin-4-yl)sulfonyl)benzonitrile]	6.59	8.48
N#Cc1ccc(S(=O)(=O)N2CCOc3c(-c4cc5cc(C#N)ccc5o4)cncc32)cc1 [O129, 2-(4-((4-Cyanophenyl)sulfonyl)-3,4-dihydro-2H-pyrido[4,3-b][1,4]oxazin-8-yl)benzofuran-5-carbonitril]	6.61	8.72
N#Cc1ccc(-c2cncc3c2OCCN3S(=O)(=O)c2ccc(C#N)cc2)cc1 [O130, 4-((8-(4-Cyanophenyl)-2,3-dihydro-4H-pyrido[4,3-b][1,4]oxazin-4-yl)sulfonyl)benzonitrile]	7.01	8.30
N#Cc1ccc(S(=O)(=O)N2CCOc3c(-c4ccc5ncoc5c4)cncc32)cc1 [O131, 4-((8-(Benzo[d]oxazol-6-yl)-2,3-dihydro-4H-pyrido[4,3-b][1,4]oxazin-4-yl)sulfonyl)benzonitrile]	6.61	8.48
N#Cc1ccc(S(=O)(=O)N2CCOc3c(-c4ccc5c(c4)NC(=O)C5)cncc32)cc1 [O132, 4-((8-(2-Oxoindolin-6-yl)-2,3-dihydro-4H-pyrido[4,3-b][1,4]oxazin-4-yl)sulfonyl)benzonitrile]	6.77	8.27
